This note sets out measurements from patent US8211901B2, “Naphthamide derivatives as multi-target protein kinase inhibitors and histone deacetylase inhibitors” (Shenzhen Chipscreen Biosciences Ltd., priority 2009, dated 2012).

Holding throughout (type): in vivo, nu/nu mice
Series [1] concerns human SSMC7721 liver cancer xenograft. As to the kind of experiment: Antitumor activity of compound 31, SSMC7721 xenograft (Example 53). The protocol: (§1) The antitumor activity of compound 31 was measured in human SSMC7721 liver cancer xenograft model. The female nu/nu mice of 18˜20 g were fed by normal diet for 3 days. Then the cultured SSMC7721 human liver cancer cells were implanted into the armpit of 50 mice. […] One group was treated with vehicle. One group was treated with sutent, the positive control drug. […] Each group was dosed orally once a day for 30 days. Tumor volumes as established by caliper measurements were recorded twice per week, along with body weights. At the end of study, the mice were killed, and tumors were weighed. The tumor growth inhibition of each group was calculated using the formula {[(the average tumor weight of vehicle group)−(the average tumor weight of drug group)]/(the average tumor weight of vehicle group)}×100%.

Series [2] in a line: Body weight in A549 xenograft study (Example 51). The protocol:
The antitumor activity of compound 31 was measured in human A549 lung cancer xenograft model. […] Then the cultured A549 human lung cancer cells were implanted into the armpit of 50 mice. When tumors had reached approximately 6 mm in diameter, the mice were divided into 6 groups randomly. Each group has 8 mice. One group was treated with vehicle. One group was treated with sutent, the positive control drug. […] Each group was dosed orally once a day for 24 days. Tumor volumes as established by caliper measurements were recorded twice per week, along with body weights. At the end of study, the mice were killed, and tumors were weighed. The tumor growth inhibition of each group was calculated using the formula {[(the average tumor weight of vehicle group)-(the average tumor weight of drug group)]/(the average tumor weight of vehicle group)}×100%.

Series [3] can be described thus: Body weight in HCT-8 xenograft study (Example 52). As for the experimental part:
The antitumor activity of compound 31 was measured in human HCT-8 colon cancer xenograft model. The female nu/nu mice of 18˜20 g were fed by normal diet for 3 days. Then the cultured HCT-8 human colon cancer cells were implanted into the armpit of 50 mice. When tumors had reached approximately 100 mm^3, the mice were divided into 6 groups randomly. Each group has 8 mice. One group was treated with vehicle. One group was treated with sutent, the positive control drug. […] Each group was dosed orally once a day for 20 days. Tumor volumes as established by caliper measurements were recorded twice per week, along with body weights. At the end of study, the mice were killed, and tumors were weighed. The tumor growth inhibition of each group was calculated using the formula {[(the average tumor weight of vehicle group)−(the average tumor weight of drug group)]/(the average tumor weight of vehicle group)}×100%.

Series [4] is described as follows: Body weight in SSMC7721 xenograft study (Example 53). As for the experimental part: as §1
A short description of series [5]: Body weight in HCT-8 xenograft study (Example 55). As for the experimental part: The antitumor activity of compound 33 and compound 37 were measured in human HCT-8 colon cancer xenograft model. The female nu/nu mice of 18˜20 g were fed by normal diet for 3 days. Then the cultured HCT-8 human colon cancer cells were implanted into the armpit of 50 mice. […] One group was treated with vehicle. One group was treated with sutent, the positive control drug. Two groups were treated with compound 33. The other two groups were treated with compound 37. Compound 33 was administered twice a day with an interval of 6 hours. Other drugs and vehicle were administered once a day. Each group was dosed orally for 20 days. Tumor volumes as established by caliper measurements were recorded twice per week, along with body weights. At the end of study, the mice were killed, and tumors were weighed. The tumor growth inhibition of each group was calculated using the formula {[(the average tumor weight of vehicle group)−(the average tumor weight of drug group)]/(the average tumor weight of vehicle group)}×100%.

Series [6] in a line: Body weight in SSMC7721 xenograft study (Example 56). As for the experimental part:
The antitumor activity of compound 33 and compound 37 were measured in human SSMC7721 liver cancer xenograft model. The female nu/nu mice of 18˜20 g were fed by normal diet for 3 days. Then the cultured SSMC7721 human liver cancer cells were implanted into the armpit of 50 mice. […] Each group has 8 mice. One group was treated with vehicle. One group was treated with sutent, the positive control drug. Two groups were treated with compound 33. The other two groups were treated with compound 37. Each group was dosed orally once a day for 30 days. Tumor volumes as established by caliper measurements were recorded twice per week, along with body weights. At the end of study, the mice were killed, and tumors were weighed. The tumor growth inhibition of each group was calculated using the formula {[(the average tumor weight of vehicle group)−(the average tumor weight of drug group)]/(the average tumor weight of vehicle group)}×100%.

The mark [7] stands for this setting: 2.5 mg/kg orally once a day for 30 days.
Where [8] appears, read: 5 mg/kg orally once a day for 30 days.
[9] abbreviates: 10 mg/kg orally once a day for 30 days.
Setting [10] is: 20 mg/kg orally once a day for 30 days.
The mark [11] stands for this setting: 5 mg/kg orally once a day for 24 days.
[12] abbreviates: 10 mg/kg orally once a day for 24 days.
Where [13] appears, read: 20 mg/kg orally once a day for 24 days.
Setting [14] is: 40 mg/kg orally once a day for 24 days.
Where [15] appears, read: 2.5 mg/kg orally once a day for 20 days.
[16] abbreviates: 5 mg/kg orally once a day for 20 days.
The mark [17] stands for this setting: 10 mg/kg orally once a day for 20 days.
The mark [18] stands for this setting: 20 mg/kg orally once a day for 20 days.
Setting [19] is: 30 × 2 mg/kg orally twice a day with an interval of 6 hours for 20 days.
Setting [20] is: 60 × 2 mg/kg orally twice a day with an interval of 6 hours for 20 days.
Setting [21] is: 30 mg/kg orally once a day for 30 days.
Setting [22] is: 60 mg/kg orally once a day for 30 days.

SMILES strings stand for the structures.

Regarding `COc1ccc2c(Oc3ccc4c(C(=O)Nc5ccccc5N)cccc4c3)ccnc2c1` [Example 31, N-(2-aminophenyl)-6-(7-methoxyquinolin-4-yloxy)-1-naphthamide], the “TGI (%) Tumor growth inhibition” value in series [1] (setting [7]) is 51.7%; in series [1] (setting [8]), 65.4%; in series [1] (setting [9]), 79.2%; in series [1] (setting [10]), 84.4%. The “Tumor weight” value in series [1] (setting [7]) worked out at 1.63 ± 0.70 g; in series [1] (setting [8]), 1.16 ± 0.55 g; in series [1] (setting [9]), 0.70 ± 0.45 g; in series [1] (setting [10]), 0.53 ± 0.28 g. Besides, the “Body weight (g) end” value came to 24.6 ± 1.3 g in series [2] (setting [11]); 25.1 ± 1.3 g in series [2] (setting [12]); 24.2 ± 0.7 g in series [2] (setting [13]); 22.6 ± 2.4 g in series [2] (setting [14]); 24.5 ± 1.1 g in series [3] (setting [15]); 24.8 ± 1.5 g in series [3] (setting [16]). For the same compound, the “Body weight (g) end” value in series [3] (setting [17]) was 23.7 ± 0.8 g; in series [3] (setting [18]), 22.5 ± 1.6 g; in series [4] (setting [7]), 23.2 ± 2.1 g; in series [4] (setting [8]) it was 24.8 ± 1.5 g; in series [4] (setting [9]), 23.6 ± 1.5 g; in series [4] (setting [10]), 21.0 ± 2.2 g. For the same compound, the “Body weight (g) start” value is given as 21.1 ± 0.6 g in series [2] (setting [11]); 19.9 ± 1.3 g in series [2] (setting [12]); 20.6 ± 1.1 g in series [2] (setting [13]); 20.0 ± 0.9 g in series [2] (setting [14]); 20.3 ± 0.8 g in series [3] (setting [15]); 21.6 ± 1.4 g in series [3] (setting [16]). Besides, the “Body weight (g) start” value is recorded as 20.7 ± 1.1 g in series [3] (setting [17]); 20.5 ± 1.3 g in series [3] (setting [18]); 20.1 ± 0.9 g in series [4] (setting [7]); 20.8 ± 1.2 g in series [4] (setting [8]); 20.4 ± 1.6 g in series [4] (setting [9]); 20.2 ± 1.7 g in series [4] (setting [10]).
With `COc1ccc2c(Oc3ccc4c(C(=O)NCc5ccc(C(=O)Nc6ccccc6N)cc5)cccc4c3)ccnc2c1` [Example 33, N-(4-((2-aminophenyl)carbamoyl)benzyl)-6-(7-methoxyquinolin-4-yloxy)-1-naphthamide], the “Body weight (g) end” value in series [5] (setting [19]) was determined as 22.6 ± 1.6 g; in series [5] (setting [20]), 19.0 ± 1.8 g; in series [6] (setting [21]) it was 24.0 ± 1.7 g; in series [6] (setting [22]) it was 25.4 ± 2.8 g. Further, the “Body weight (g) start” value in series [5] (setting [19]) stood at 21.1 ± 1.2 g; in series [5] (setting [20]), 20.1 ± 0.9 g; in series [6] (setting [21]) it was 20.8 ± 0.5 g; in series [6] (setting [22]), 21.4 ± 1.3 g.
